The record followed here is paper PMC9329436, “Optimization of the 4-anilinoquin(az)oline scaffold as epidermal growth factor receptor (EGFR) inhibitors for chordoma utilizing a toxicology profiling assay platform” (Scientific Reports, 2022).

Common to all, as to type: biochemical
In assay [1] the target is 320 wild-type protein kinases (Homo sapiens, UniProt P08069). The following applies: IGF1-R, singlicate. An excerpt: (§1) Table S4. Profiling of two compounds at two concentrations against 320 wild-type protein kinases; singlicate measurement; Residual activities (% of control).
The target in assay [2] is 320 wild-type protein kinases (Homo sapiens, UniProt Q9H2X6). To be noted: singlicate.
Description: as §1

Assay [3] addresses T1, 320 wild-type protein kinases (Homo sapiens, UniProt Q96BR1).
T1 sequence (Q96BR1 1-496): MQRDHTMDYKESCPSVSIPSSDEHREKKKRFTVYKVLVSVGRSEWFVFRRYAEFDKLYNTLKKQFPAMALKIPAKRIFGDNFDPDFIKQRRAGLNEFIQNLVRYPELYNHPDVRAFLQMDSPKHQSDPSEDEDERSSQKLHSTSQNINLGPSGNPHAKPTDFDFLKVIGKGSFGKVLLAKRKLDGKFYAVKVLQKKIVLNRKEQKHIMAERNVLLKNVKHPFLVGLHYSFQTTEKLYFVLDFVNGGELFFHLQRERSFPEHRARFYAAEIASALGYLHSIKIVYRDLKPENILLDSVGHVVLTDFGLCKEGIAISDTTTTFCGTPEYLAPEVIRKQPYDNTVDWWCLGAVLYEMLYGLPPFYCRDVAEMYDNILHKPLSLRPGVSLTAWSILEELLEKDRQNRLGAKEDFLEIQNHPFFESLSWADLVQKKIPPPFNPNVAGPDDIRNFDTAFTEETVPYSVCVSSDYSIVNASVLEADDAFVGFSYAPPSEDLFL
The following applies: kinase SGK3, singlicate.
Description: as §1

The target in assay [4] is 320 wild-type protein kinases (Homo sapiens, UniProt Q86V86). To be noted: singlicate.
Description: as §1

Assay [5] has as its target T2, 320 wild-type protein kinases (Homo sapiens, UniProt P51955).
T2 sequence (P51955 1-445): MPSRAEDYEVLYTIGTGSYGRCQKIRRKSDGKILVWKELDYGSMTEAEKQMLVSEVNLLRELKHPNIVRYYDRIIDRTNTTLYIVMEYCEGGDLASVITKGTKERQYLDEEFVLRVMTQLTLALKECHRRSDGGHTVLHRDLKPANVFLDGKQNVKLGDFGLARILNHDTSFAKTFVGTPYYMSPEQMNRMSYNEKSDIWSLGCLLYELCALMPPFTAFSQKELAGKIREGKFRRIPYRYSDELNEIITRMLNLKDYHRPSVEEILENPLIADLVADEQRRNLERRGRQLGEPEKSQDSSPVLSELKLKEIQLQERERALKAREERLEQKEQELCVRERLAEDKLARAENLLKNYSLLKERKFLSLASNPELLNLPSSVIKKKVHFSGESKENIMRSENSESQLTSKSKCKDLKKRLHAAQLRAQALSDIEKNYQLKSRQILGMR
To be noted: singlicate.
Description: as §1

The target in assay [6] is 320 wild-type protein kinases (Homo sapiens, UniProt Q9BYT3). To be noted: kinase STK33, singlicate.
Description: as §1

Assay [7] addresses T3, 320 wild-type protein kinases (Homo sapiens, UniProt Q8TF76).
T3 sequence (Q8TF76 1-798): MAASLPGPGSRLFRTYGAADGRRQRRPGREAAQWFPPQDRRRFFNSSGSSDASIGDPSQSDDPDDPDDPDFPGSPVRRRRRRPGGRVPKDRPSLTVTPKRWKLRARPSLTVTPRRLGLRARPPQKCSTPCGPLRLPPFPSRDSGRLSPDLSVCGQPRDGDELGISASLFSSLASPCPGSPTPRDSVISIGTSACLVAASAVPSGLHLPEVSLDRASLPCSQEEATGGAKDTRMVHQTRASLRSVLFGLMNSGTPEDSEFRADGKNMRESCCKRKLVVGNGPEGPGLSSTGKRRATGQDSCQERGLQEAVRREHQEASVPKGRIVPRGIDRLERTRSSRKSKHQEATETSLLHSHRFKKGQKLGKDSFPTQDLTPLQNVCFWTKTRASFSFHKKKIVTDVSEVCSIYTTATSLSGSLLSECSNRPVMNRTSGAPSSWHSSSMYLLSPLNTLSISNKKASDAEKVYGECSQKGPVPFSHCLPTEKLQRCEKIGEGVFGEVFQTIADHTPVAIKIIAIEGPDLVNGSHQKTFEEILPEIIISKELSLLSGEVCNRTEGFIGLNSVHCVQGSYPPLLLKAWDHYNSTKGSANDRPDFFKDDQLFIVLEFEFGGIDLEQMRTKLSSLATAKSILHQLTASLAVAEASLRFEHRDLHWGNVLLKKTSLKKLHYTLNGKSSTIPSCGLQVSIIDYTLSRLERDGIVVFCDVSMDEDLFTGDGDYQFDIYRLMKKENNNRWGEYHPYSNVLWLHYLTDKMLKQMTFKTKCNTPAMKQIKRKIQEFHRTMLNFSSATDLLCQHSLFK
The following applies: singlicate.
Description: as §1

Where two headings read alike, the source gives them in different places.

320 wild-type protein kinases (Homo sapiens, UniProt Q9H2X6), sequence (Q9H2X6 whole entry): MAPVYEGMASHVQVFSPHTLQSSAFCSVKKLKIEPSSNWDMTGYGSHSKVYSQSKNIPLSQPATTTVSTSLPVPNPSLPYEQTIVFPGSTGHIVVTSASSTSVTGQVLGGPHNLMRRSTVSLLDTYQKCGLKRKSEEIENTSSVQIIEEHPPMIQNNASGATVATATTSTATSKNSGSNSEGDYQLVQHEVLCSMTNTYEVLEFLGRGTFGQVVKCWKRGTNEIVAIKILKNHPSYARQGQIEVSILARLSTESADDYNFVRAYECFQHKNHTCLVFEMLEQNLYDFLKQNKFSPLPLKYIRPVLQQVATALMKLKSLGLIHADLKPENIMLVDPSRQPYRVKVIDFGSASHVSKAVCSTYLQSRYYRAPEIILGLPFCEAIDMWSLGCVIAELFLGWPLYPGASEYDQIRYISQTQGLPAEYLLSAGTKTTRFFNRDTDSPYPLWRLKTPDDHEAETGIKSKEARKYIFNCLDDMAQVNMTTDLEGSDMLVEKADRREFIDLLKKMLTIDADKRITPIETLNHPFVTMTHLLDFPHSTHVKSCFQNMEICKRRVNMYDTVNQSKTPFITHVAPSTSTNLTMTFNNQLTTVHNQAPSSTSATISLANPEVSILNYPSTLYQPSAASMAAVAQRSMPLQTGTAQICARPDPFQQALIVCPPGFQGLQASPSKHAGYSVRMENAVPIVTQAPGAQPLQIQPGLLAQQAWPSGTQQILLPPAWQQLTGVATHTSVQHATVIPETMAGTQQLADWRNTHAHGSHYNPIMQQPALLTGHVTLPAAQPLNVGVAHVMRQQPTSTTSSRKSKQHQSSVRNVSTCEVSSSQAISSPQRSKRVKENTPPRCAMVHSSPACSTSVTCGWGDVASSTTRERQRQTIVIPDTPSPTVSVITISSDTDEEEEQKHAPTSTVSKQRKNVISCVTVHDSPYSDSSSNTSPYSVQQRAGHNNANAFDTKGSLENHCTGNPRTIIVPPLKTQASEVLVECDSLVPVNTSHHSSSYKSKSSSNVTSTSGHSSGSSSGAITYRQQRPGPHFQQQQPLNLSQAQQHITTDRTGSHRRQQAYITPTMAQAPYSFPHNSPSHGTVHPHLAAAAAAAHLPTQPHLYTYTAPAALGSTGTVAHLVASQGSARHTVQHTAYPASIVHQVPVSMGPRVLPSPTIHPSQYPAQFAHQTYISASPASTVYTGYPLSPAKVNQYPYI
320 wild-type protein kinases (Homo sapiens, UniProt P08069), sequence (P08069 31-1367): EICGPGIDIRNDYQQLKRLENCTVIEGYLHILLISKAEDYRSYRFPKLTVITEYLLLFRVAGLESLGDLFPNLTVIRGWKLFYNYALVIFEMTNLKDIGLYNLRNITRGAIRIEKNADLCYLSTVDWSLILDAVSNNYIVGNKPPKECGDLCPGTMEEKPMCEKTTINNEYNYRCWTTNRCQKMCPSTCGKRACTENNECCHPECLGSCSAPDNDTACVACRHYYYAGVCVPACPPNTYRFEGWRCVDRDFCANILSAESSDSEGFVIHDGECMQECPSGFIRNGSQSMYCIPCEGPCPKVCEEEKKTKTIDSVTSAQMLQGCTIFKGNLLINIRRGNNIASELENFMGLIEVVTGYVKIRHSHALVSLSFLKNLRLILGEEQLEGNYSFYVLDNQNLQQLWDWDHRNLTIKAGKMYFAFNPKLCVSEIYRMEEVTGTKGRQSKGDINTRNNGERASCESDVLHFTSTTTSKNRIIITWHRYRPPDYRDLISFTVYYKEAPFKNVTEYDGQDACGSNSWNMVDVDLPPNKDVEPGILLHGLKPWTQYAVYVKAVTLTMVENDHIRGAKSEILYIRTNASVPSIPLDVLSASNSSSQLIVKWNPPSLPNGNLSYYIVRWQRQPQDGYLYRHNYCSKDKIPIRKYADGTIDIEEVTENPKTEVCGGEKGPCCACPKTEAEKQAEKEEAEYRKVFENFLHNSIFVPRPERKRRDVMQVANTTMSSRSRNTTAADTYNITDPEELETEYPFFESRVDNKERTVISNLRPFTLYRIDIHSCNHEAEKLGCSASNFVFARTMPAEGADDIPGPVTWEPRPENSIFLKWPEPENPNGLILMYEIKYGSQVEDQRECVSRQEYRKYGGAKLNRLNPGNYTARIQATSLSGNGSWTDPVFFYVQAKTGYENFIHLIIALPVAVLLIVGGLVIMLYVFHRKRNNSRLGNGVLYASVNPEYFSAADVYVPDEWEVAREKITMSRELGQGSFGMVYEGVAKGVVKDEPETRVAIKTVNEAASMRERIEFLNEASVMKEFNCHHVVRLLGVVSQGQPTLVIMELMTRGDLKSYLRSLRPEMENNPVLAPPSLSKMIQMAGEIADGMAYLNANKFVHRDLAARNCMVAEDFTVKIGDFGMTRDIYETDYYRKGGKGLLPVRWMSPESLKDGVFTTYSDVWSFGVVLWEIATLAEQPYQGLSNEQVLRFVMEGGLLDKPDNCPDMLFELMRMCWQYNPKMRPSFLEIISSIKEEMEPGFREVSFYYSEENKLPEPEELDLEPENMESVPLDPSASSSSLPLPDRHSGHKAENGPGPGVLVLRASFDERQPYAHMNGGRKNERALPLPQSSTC
320 wild-type protein kinases (Homo sapiens, UniProt Q9BYT3), sequence (Q9BYT3 whole entry): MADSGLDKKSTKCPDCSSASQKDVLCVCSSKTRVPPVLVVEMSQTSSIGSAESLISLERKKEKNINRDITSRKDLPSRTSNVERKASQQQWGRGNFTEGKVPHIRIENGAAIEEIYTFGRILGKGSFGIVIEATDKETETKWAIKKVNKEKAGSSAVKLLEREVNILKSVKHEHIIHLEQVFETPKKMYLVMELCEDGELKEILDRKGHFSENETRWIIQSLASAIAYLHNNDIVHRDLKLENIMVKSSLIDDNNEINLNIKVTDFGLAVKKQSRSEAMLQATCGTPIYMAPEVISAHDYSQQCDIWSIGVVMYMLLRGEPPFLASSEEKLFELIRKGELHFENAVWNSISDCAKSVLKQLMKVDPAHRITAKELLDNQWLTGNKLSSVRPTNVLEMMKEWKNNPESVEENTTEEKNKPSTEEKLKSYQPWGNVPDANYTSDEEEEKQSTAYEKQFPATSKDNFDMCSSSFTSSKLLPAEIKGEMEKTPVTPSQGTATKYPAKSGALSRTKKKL

Consider `C#Cc1cc(Nc2ncnc3cc(OC)c(OC)cc23)ccc1Cl` [Compound 45], for which the Residual activity in assay [1] (1.0E-06 M) is 101 % of control; in assay [1] (1.0E-07 M), 122 % of control; in assay [2] (HIPK2, 1.0E-06 M), 94 % of control; in assay [2] (HIPK2, 1.0E-07 M), 98 % of control; in assay [4] (PIM3, 1.0E-06 M) it was 53 % of control; in assay [4] (PIM3, 1.0E-07 M), 81 % of control. Also, the Residual activity in assay [5] (NEK2, 1.0E-06 M) is listed as 86 % of control; in assay [5] (NEK2, 1.0E-07 M) it was 92 % of control; in assay [7] (GSG2, 1.0E-06 M) it was 109 % of control; in assay [7] (GSG2, 1.0E-07 M) it was 115 % of control. Moreover, the “Residual activity, SGK3” value in assay [3] (assay conc. 1.0E-06 M) was 89 % of control; in assay [3] (assay conc. 1.0E-07 M) it was 93 % of control. Further, the “Residual activity, STK33” value in assay [6] (assay conc. 1.0E-06 M) is 76 % of control; in assay [6] (assay conc. 1.0E-07 M), 100 % of control.
As for `C#Cc1cc(Nc2ncnc3cc(I)ccc23)ccc1Cl` [Compound 41], the Residual activity in assay [1] (1.0E-06 M) is recorded as 103 % of control; in assay [1] (1.0E-07 M) it was 109 % of control; in assay [2] (HIPK2, 1.0E-06 M), 101 % of control; in assay [2] (HIPK2, 1.0E-07 M), 97 % of control; in assay [4] (PIM3, 1.0E-06 M) it was 83 % of control; in assay [4] (PIM3, 1.0E-07 M) it was 81 % of control. Further, the Residual activity is 82 % of control in assay [5] (NEK2, 1.0E-06 M); 96 % of control in assay [5] (NEK2, 1.0E-07 M); 112 % of control in assay [7] (GSG2, 1.0E-06 M); 113 % of control in assay [7] (GSG2, 1.0E-07 M). Also, the “Residual activity, SGK3” value is recorded as 86 % of control in assay [3] (assay conc. 1.0E-06 M) and 91 % of control in assay [3] (assay conc. 1.0E-07 M). The entries for the “Residual activity, STK33” value in assay [6] (assay conc. 1.0E-06 M) and in assay [6] (assay conc. 1.0E-07 M) were 89 % of control and 98 % of control, respectively.
